The subject of experiment [1] is MDA-MB-231. The experiment in a line: Anticancer activity against human MDA-MB-231 cells assessed as cell viability measured after 24 hrs by MTT assay. It counts as functional, cell-based. The following applies: MDA-MB-231, 24 h.
Experiment [2] has as its system HeLa. The experiment in a line: Antiproliferative activity against human HeLa cells assessed as cell viability measured after 24 hrs by MTT assay. It counts as functional, cell-based. A general note: Tetrazolium assays rely on reduction of a dye to a coloured formazan, in cell work by metabolically active cells.
In experiment [3] the test system is HCT-116. The experiment in a line: Antiproliferative activity against human HCT-116 cells assessed as cell viability measured after 24 hrs by MTT assay. It counts as functional, cell-based. The following applies: HCT-116, 24 h.
Experiment [4] deals with P388. Put plainly: Anticancer activity against mouse P388 cells assessed as reduction in cell growth. It counts as functional, cell-based.
For experiment [5], the system named is HCT-116. Put plainly: cells. To be noted: Homo sapiens.
Description: Anticancer activity against human HCT-116 cells assessed as inhibition of cell growth by MTT assay
Experiment [6] deals with HepG2. Put plainly: cells. To be noted: Homo sapiens.
Description: Anticancer activity against human HepG2 cells assessed as inhibition of cell growth by MTT assay
For experiment [7], the system named is MCF7. Put plainly: Anticancer activity against human MCF7 cells assessed as inhibition of cell growth by MTT assay. It counts as functional, cell-based.
Experiment [8] deals with BT-474. Put plainly: Anticancer activity against human BT-474 cells assessed as cell growth inhibition incubated for 48 hrs by MTT assay. It counts as functional, cell-based. To be noted: BT-474, 48 h.
For experiment [9], the system named is A549. The experiment in a line: Anticancer activity against human A549 cells assessed as cell growth inhibition. It counts as functional, cell-based.
The subject of experiment [10] is P388. Put plainly: Anticancer activity against mouse P388 cells assessed as cell growth inhibition. The experiment is classed as functional, cell-based.
Experiment [11] deals with HT-29. The experiment in a line: Anticancer activity against human HT-29 cells assessed as cell growth inhibition. It counts as functional, cell-based.
Experiment [12] has as its system HT-29. The experiment in a line: Anticancer activity against human HT-29 cells assessed as inhibition of cell growth by dilution assay. It counts as functional, cell-based.
Experiment [13] has as its system A549. The experiment in a line: Anticancer activity against human A549 cells assessed as inhibition of cell growth by dilution assay. It counts as functional, cell-based.
The subject of experiment [14] is P388. Put plainly: Anticancer activity against mouse P388 cells assessed as inhibition of cell growth by dilution assay. The experiment is classed as functional, cell-based.
The subject of experiment [15] is P388. Put plainly: Anticancer activity against mouse P388 cells assessed as inhibition of cell growth. The experiment is classed as functional, cell-based.
Experiment [16] relates to HepG2. The experiment in a line: Anticancer activity against human HepG2 cells assessed as inhibition of cell growth. The experiment is classed as functional, cell-based.
Experiment [17] concerns MCF7. The experiment in a line: Anticancer activity against human MCF7 cells assessed as inhibition of cell growth. It counts as functional, cell-based.

Drawing on ChEMBL document CHEMBL5149985, “Discovery of cytotoxic natural products from Red Sea sponges: Structure and synthesis” (Eur J Med Chem, 2021), this text covers IC50 for 36 molecules.

Usually IC50 stands for the concentration that gives 50% inhibition.

Structures can show the parent of a compound that is named as a salt. Some results are limits rather than exact numbers.

In the case of `COC1=C(Br)C[C@@]2(OC=C1Br)ON=C(C(=O)NCCCOc1c(Br)cc(C(O)CNC(N)=O)cc1Br)[C@H]2O` (some centres undefined), the IC50 turned out to be 13200 nM in [1], 17600 nM in experiment [2] and 7000 nM in experiment [3].

Regarding `COC1=CC(=O)C(C[C@]2(C)[C@@H](C)CC[C@]3(C)C(C)=CCC[C@@H]23)=C(O)C1=O`, the IC50 in experiment [4] is more than 54 nM.

Consider `CC[C@@]1(C)CCC[C@]2(C)[C@H]3C[C@H](OC(C)=O)[C@]4(C)C=C(C(C)=O)[C@H](OC(C)=O)C[C@H]4[C@]3(C)CC[C@@H]12`, for which the figures for the IC50 in experiment [5], in experiment [6] and in experiment [7] were 1.3 nM, 2.9 nM and 4.8 nM, respectively.

For the molecule `COC1=C(Br)C[C@]2(OC=C1Br)ON=C(C(=O)NCCCOc1c(Br)cc(CCN)cc1Br)[C@@H]2O` [PSAMMAPLYSIN A], the IC50 in experiment [1] came out at 3900 nM; in [2], 8500 nM; in experiment [3] it was 8500 nM.

As for `C[C@@H]1CN2CCC[C@H]3CCCCCC[C@H]4CCN5CCC[C@@](O)(CCCCCC[C@@H]1O[C@H]32)[C@H]5O4` [XESTOSPONGIN B], in [8], the IC50 was determined as 52500 nM.

Regarding `CC[C@@]1(C)CCC[C@]2(C)[C@H]3C[C@H](OC(C)=O)[C@]45C[C@@H](O)[C@H]4C(C(C)=O)=CC[C@H]5[C@]3(C)CC[C@@H]12`, the half-inhibitory concentration (IC50) in experiment [5] turned out to be 2.9 nM; in experiment [6], 3.8 nM; in [7], 2.9 nM.

`CC(=O)O[C@H]1C[C@H]2[C@@](C)(CC[C@H]3C(C)(C)CCC[C@]23C)[C@@H]2CC=C(C(C)=O)C[C@]21C`: the IC50 in experiment [5] amounted to 1.8 nM; in [6], 4.4 nM.

`CC1=CCC[C@H]2[C@](C)(CC3=CC(=O)C=C(O)C3=O)[C@@H](C)CC[C@]12C`: in experiment [4], the IC50 was determined as 1.8 nM.

With `[O-][N+]12CCC[C@]3(O)CCCCCC[C@@H]4CCN5CCC[C@@H](CCCCCC[C@H](CC1)O[C@@H]32)[C@@H]5O4` (some centres undefined), the IC50 in [8] amounted to 29500 nM.

Consider `C=C1CCCC(C)(C)C1(O)CCC[C@@]1(C)CC[C@@H]([C@H](C)C(=O)OC)OO1` (some centres undefined), for which the IC50 in experiment [9], in experiment [10] and in [11] was not below 1 µg/mL in each case.

Turning to `CC(=O)Oc1c(O)ccc(O)c1C[C@]1(C)[C@@H](C)CC[C@]2(C)C(C)=CCC[C@@H]12`, the IC50 in [4] is less than 1.6 nM.

With `CC(=O)O[C@@H]1c2occc2[C@@H](O)C[C@H]2[C@]3(C)CC[C@H]4C(C)(C)CCC[C@]4(C)[C@H]3C[C@@]21C` [SALMAHYRTISOL A], the IC50 in [12] is more than 2.2 nM; in [13], 2.2 nM; in experiment [14], 2.2 nM.

`CC(=O)OC[C@]1(C)CCC[C@]2(C)[C@H]3C[C@@H](O)[C@]4(C)C5=C(CC[C@H]4[C@]3(C)CC[C@@H]12)COC5=O`: the IC50 in experiment [12] was more than 2.2 nM; in [13], 2.2 nM; in experiment [14], 2.2 nM.

On to `C=C(CCCC(C)(C)O)C(=O)CC[C@@]1(C)CC[C@@H]([C@H](C)C(=O)OC)OO1` [AIKUPIKOXIDE D], for which the IC50 in experiment [9], in experiment [10] and in [11] was not below 1 µg/mL throughout.

As for `CO[C@@]1(C)CCC(C(C)C)=C[C@@H]2[C@H]1CC[C@]2(C)O`, in experiment [15], the IC50 was more than 4 nM.

As for `CC(=O)O[C@H]1C[C@H]2[C@@](C)(CCC3C(C)(C)CCC[C@@]32C)[C@@H]2C[C@@H](OC(C)=O)C(C(C)=O)=C[C@@]12C` (some centres undefined), the IC50 in [5] is 2.7 nM; in [6] it was 2.6 nM; in [7] it was 4.6 nM.

On to `CC1(C)CCC[C@]2(C)[C@H]3C[C@@H](O)[C@]4(C)c5cocc5C(=O)C[C@H]4[C@]3(C)CC[C@@H]12` [SALMAHYRTISOL B], for which the figures for the IC50 in [12], in [13] and in [14] were more than 2.2 nM, 2.2 nM and 2.2 nM, respectively.

As to `COC(=O)[C@@H](C)[C@@H]1CC[C@](C)(CCC(=O)C(C)(C)CCCC(C)=O)OO1` [DIACARPEROXIDE B], the IC50 in experiment [9], in experiment [10] and in experiment [11] was not below 1 µg/mL each time.

On to `C/C1=C/C(=O)O[C@@H]2C[C@@H](CC[C@H](C)/C=C\CC1)O[C@@](O)([C@@H]1CS(=O)(=O)C(=O)N1O)C2`, for which the IC50 in [16] turned out to be 16300 nM.

`COC1=C(Br)C[C@@]2(OC=C1Br)ON=C(C(=O)NCCCOc1c(Br)cc(CCNC(N)=O)cc1Br)[C@H]2O`: the IC50 worked out at 19400 nM in [1], 22200 nM in experiment [2] and 8200 nM in experiment [3].

Take `CC(=O)O[C@H]1C[C@@H]2[C@@]3(C)CCCC(C)(C)[C@@H]3CC[C@@]2(C)[C@@H]2CC=C(C(C)=O)[C@@H]3[C@@H](O)C[C@@]132`: the half-maximal inhibitory concentration (IC50) in experiment [5] came out at 1.7 nM; in [6], 4.7 nM; in [7] it was 1.3 nM.

`CC1=CCC[C@H]2[C@](C)(CC3=C(O)C(=O)C=C(O)C3=O)[C@@H](C)CC[C@]12C`: in experiment [4], the IC50 worked out at 3.6 nM.

`CCCCCCCCCCCCC(=O)N[C@@H](CO)[C@H](O)[C@H](O)CCCCCCCCCC`: the results for the IC50 in experiment [16] and in experiment [17] were 107000 nM and more than 200000 nM, respectively.

For `CCSc1ccc(/C=C2\NC(=O)NC2=O)cc1`, the IC50 in experiment [1] is 43400 nM.

With `CC[C@@]1(C)CCC[C@]2(C)[C@H]3C[C@H](OC(C)=O)[C@]4(C)[C@H]5CO[C@](C)(O)C5CC[C@H]4[C@]3(C)CC[C@@H]12` (some centres undefined), the figures for the IC50 in [5], in experiment [6] and in [7] were 1.7 nM, 3.3 nM and 4 nM, respectively.

Regarding `O[C@]12CCCCCC[C@@H]3CCN4CCC[C@@H](CCCCCC[C@@H]5CCN(CCC1)[C@H]2O5)[C@@H]4O3`, the IC50 in experiment [8] was 9300 nM.

On to `CCCCCCCCCCCCCCCCCCCCC[C@@H](O)[C@@H](O)[C@H](CO)NC(=O)[C@H](O)CCCCCCCCCCCCCCCC`, for which the half-inhibitory concentration (IC50) in experiment [16] was 24700 nM; in experiment [17] it was 26800 nM.

Regarding `CC(=O)O[C@H]1C[C@@H]2[C@@]3(C)CCCC(C)(C)[C@@H]3CC[C@@]2(C)[C@@H]2CC=C(C(C)=O)[C@@H]3[C@H](O)C[C@@]132`, the IC50 is 0.6 nM in experiment [5], 4.7 nM in experiment [6] and 2.4 nM in experiment [7].

Turning to `COc1cccc2c1C(=O)c1c(O)c3c(c(O)c1C2=O)C[C@@](O)(C(=O)CO)C[C@@H]3O[C@H]1C[C@H](N)[C@H](O)[C@H](C)O1` [DOXORUBICIN HYDROCHLORIDE], the IC50 in experiment [5] came out at 1.2 nM; in experiment [10] it was 0.0114 nM; in [6] it was 1 nM.

Take `[O-][N+]12CCC[C@]3(O)CCCCCC[C@@H]4CCN5CCC[C@](O)(CCCCCC[C@H](CC1)O[C@@H]32)[C@@H]5O4` (some centres undefined): in experiment [8], the IC50 was determined as 35600 nM.

With `COC1=C(Br)[C@H]2OC(=O)C[C@]2(O)C=C1Br`, in [1], the IC50 is 18000 nM.

Consider `C#C/C=C\CCCCC#CC#CCCCCCC#CCO`, for which the IC50 in experiment [17] stood at 11700 nM.

For the molecule `C/C1=C/C(=O)O[C@@H]2C[C@@H](CC[C@H](C)/C=C\CC1)O[C@@](O)([C@@H]1CSC(=O)N1)C2` [LATRUNCULIN B], the IC50 in [16] was 19300 nM.

Turning to `CCCCCCCC/C=C\CCCCCCC[C@@H](O)C(=O)N[C@@H](CO)[C@H](O)[C@H](O)CCCCCCCCCCCCCCCCCCC`, the half-inhibitory concentration (IC50) in experiment [16] amounted to 21300 nM; in [17], 29800 nM.

In the case of `CC(=O)CCCC(C)(C)C(=O)CC/C(C)=C/CC[C@@]1(C)CC[C@H]([C@H](C)C(=O)O)OO1` [AIKUPIKOXIDE A], the IC50 in experiment [9], in experiment [10] and in experiment [11] was not below 1 µg/mL in each case.

Regarding `CC(=O)OC1=C(C[C@]2(C)[C@@H](C)CC[C@]3(C)C(C)=CCC[C@@H]23)C(=O)C=CC1=O`, in experiment [4], the IC50 came to 30 nM.
